Laboratory results reported in patent US10435388B2, “Selective inhibitors of clinically important mutants of the EGFR tyrosine kinase” (CS PHARMATECH LIMITED, priority 2016, dated 2019).
Several values for one entry are separate records, joined by “and”; a condition that tells them apart may be missing. Equal entries are not always repeated. Where two headings read alike, the source gives them in different places.

Key:
[1] = target: T1, IGF-1R (Homo sapiens, UniProt P08069); assay: IGF-1R inhibition assay (Caliper EZ Reader); format: biochemical; conditions: enzyme assay
T1 construct: purchased CARNA BIOSCIENCE 08-141
T1 sequence (P08069 959-1367 limits assumed): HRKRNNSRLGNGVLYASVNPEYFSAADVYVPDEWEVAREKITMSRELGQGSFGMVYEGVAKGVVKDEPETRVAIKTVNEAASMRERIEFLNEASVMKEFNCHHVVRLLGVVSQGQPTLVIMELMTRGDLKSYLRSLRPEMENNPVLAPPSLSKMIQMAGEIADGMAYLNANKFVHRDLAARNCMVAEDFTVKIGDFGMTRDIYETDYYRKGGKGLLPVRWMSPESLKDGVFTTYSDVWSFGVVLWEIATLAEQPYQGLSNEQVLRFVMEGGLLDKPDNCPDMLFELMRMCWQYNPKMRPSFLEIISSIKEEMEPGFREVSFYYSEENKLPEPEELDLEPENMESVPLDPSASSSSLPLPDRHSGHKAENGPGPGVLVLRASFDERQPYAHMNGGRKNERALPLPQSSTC
Experimental: (§1) Test compound was dissolved in DMSO at 30 mM. […] 20 nL of these compounds DMSO dilutes were dispensed into a new 384-well assay plate by Echo 550. […] 15 uL of kinase assay buffer containing IGF-1R protein and substrate was transferred to assay plate and incubate at RT for 30 minutes. Kinase assay buffer supplemented with substrate peptides was employed as low control to monitor the background. 40 μM ATP was prepared in kinase assay buffer containing and 5 μL of ATP solution was added to each well to start the reaction. The assay plate was incubated at 25° C. for 180 minutes and the reaction was stopped by adding 40 μL of 0.5 M EDTA.
Phosphorylated fluorescent-tagged peptides were differentiated from non-phosphorylated peptides by separating using Caliper EZ Reader II and the detection was directly converted to conversion ratio.

[2] = test system: H1975 cells (DM); assay: H1975 inhibition assay (cell proliferation), Method B; format: cell-based; conditions: cellular proliferation, several runs
[3] = target: T2, INSR (Homo sapiens, UniProt P06213); assay: INSR inhibition assay (Caliper EZ Reader); format: biochemical; conditions: enzyme assay
T2 construct: purchased CARNA BIOSCIENCE 08-142
T2 sequence (P06213 989-1382 limits assumed): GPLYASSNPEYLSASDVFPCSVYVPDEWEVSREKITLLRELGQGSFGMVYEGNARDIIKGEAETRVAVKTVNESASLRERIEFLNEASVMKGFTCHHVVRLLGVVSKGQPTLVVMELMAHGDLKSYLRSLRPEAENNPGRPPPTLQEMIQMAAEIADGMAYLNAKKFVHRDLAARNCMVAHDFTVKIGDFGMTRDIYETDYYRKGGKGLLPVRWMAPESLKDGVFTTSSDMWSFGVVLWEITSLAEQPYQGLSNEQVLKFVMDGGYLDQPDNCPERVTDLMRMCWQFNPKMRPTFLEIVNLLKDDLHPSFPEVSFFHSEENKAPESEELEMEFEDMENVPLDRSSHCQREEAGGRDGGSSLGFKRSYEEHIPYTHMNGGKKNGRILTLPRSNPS
Experimental: as §1, with “INSR” for “IGF-1R”, “LM” for “μM”
The result is analyzed in the same manner of […].

[4] = test system: PC9 cells (SM); assay: PC-9 growth inhibition assay (cell proliferation), Method B; format: cell-based, human; conditions: cellular proliferation, several runs
[5] = Mouse in vivo PK study; conditions: male CDI mice
Experimental: To determine the drug concentration in plasma of NJB-342, NJB-348 and NJB-463 following intravenous and oral administration in male CDI Mice, to get the pharmacokinetic profile and PK parameters
Test animals: healthy male CDI mice (body weight 20-30 g, 18 mice, free access to food and water), provided by Sibeifu laboratory.
Dose Level and dose route: dosed the animals via intravenous injection from tail vein for IV group (1 mg/kg, 5 mL/kg, 10% DMSO/40% PEG400/50% water), dosed the animals via oral gavage for PO group (10 mg/kg, 10 mL/kg, (10% DMSO/40% PEG400/50% water), respectively.
Samples collection: the healthy animals were used, weighed the bodyweight and marked at tail and cage card prior to dosing. Blood samples (0.03 mL per time point) were collected from dorsal metatarsal vein at 0.083, 0.25, 0.5, 1, 2, 4, 8, 24 h post dose for IV group and at 0.25, 0.5, 1, 2, 4, 8, 24 h post dose for PO group, the terminal time point was collected from heart (˜0.3 mL). The blood samples were put into the tube with heparin-Na coated and then put on the cold box, centrifuged at 4° C. 4000 g, 5 minutes immediately after collecting all samples per time point to get plasma. The plasma samples were stored in a freezer at −75±15° C. prior to analysis.

[6] = test system: p-EGFR in A431 cells (wild type EGFR, EGF stimulated); assay: Wild type EGFR A431 autophosphorylation inhibition assay (ELISA); format: cell-based, human; conditions: 2 h treatment, EGF stimulation 10 min
Experimental: (§2) Cellular EGFR Autophosphorylation Assays.
Wild Type EGFR A431 Autophosphorylation Inhibition Assay (ELISA).
After 2 hour treatment with test compounds, add 4.5 μL of EGF (1 μg/mL) into each well and stimulate for 10 min. The rest of the procedure was processed in the same manner as described above for H1975 cells.

[7] = test system: p-EGFR in H1975 cells (L858R/T790M double mutant EGFR)
Experimental: H1975 cells were cryopreserved in liquid nitrogen. […] Remove the vial from liquid nitrogen and thaw rapidly by placing at 37° C. in a water bath with gentle agitation for 1-2 minutes and then decontaminated by wiping with 70% ethanol before opening in a Class II biological safety cabinet. Transfer the vial contents drop-wise into 10 mL of cell culture medium in a sterile 15 mL conical tube. Then centrifuged the tube at 200× g for 5 minutes and aspirate the supernatant. Re-suspend the cell pellet with 1 mL of fresh cell culture medium and transfer it in to the T75 flask containing cell culture medium.
To passage H1975 cells, firstly, the adherent cells were rinsed with Trypsin/EDTA. Then add Trypsin/EDTA (3 mL for a T75 flask) into the flask and swirl to ensure the cells coated with trypsin evenly. Then incubate the flasks at 37° C. until the cells detach. Add equal volume of cell culture medium to stop the reaction. Collect the detached cells and centrifuged at 200× g for 5 minutes followed by re-suspended in fresh culture medium. Then, the cells were transferred into a new T75 flask containing cell culture medium. Cells were sub-cultured three times per week at a ratio of 1:4 in culture medium.
Harvest cells from flask into cell culture medium and the cell numbers counted using Automated Cell Counter (Thermo Fisher Scientific, Countess™). Dilute the cells into 250,000 cells/mL with culture medium and add 40 μL of cell suspension into each well of 384-well cell culture plate as designated. The final concentration was 10,000 cells/well. The plates were covered with lid and placed in 37° C. 5% CO2 incubator overnight for cell attachment.
On the second day, test compounds were dissolved in DMSO at 10 mM. […] The same volume of DMSO was adopted as high control.
Place the plate back to 37° C. 5% CO2 incubator for 2 hours. Replace the medium of each well with ice-cold HBSS. Then remove the HBSS, add 30 μL cell lysis buffer into each well and shake the plates for 30 mins on a plate shaker. Centrifuge for 5 min at 1,000 rpm to remove bubbles and transfer 25 uL of the lysate supernatant for p-EGFR assay by using a commercial ELISA kit (R&D, DYC1095B-5).
For estimation of IC50, the absorption readout are transformed to % relative activity by applying the following equation
[formula] The IC50 was then calculated by fitting in XLFit (IDBS, Guildford, Surrey) to a four parameters logistic curve.

[8] = test system: p-EGFR in PC9 cells (Exon 19 deletion EGFR); assay: Exon19 deletion EGFR (activating single mutant) PC-9 cellular autophosphorylation assay; format: cell-based, human; conditions: 2 h treatment, ELISA
Experimental: as §2
The human lung cell line PC9 (Exon 19 deletion EGFR) is obtained from the American type Culture Collection. […] Cells are grown in a humidified incubator at 37° C. with 5% CO2, Assays to measure cellular phosphorylation of endogenous p-EGFR in cell Iysates are carried out according to the protocol described in the R&D Systems DuoSet IC Human Phospho-EGF R ELISA (R&D Systems catalogue number #DYCI095). 40 μL of cells are seeded (10000 cells/well) in growth medium in Corning black, clear-bottomed 384-well plates and incubated at 37° C., with 5%0/CO2 overnight. […] Plates are incubated for a further 2 h, then following aspiration of medium, 40 μL×lysis buffer is added to each well. Greiner black high bind 384 well plates are coated with capture antibody and then blocked with 3% BSA. Following removal of block, 15 μL of lysate are transferred to the Greiner black high bind 384 well plates and incubated for 2 hours. Following aspiration and washing of the plates with PBS, 20 μL of detection antibody are added and incubated for 2 hours. […] The data obtained with each compound are exported into a suitable software package (such as Origin) to perform curve fitting analysis.

[9] = test system: A431 cells (WT); assay: A431 inhibition assay (cell proliferation), Method B; format: cell-based, human; conditions: cellular proliferation, several runs
Experimental: Cell Proliferation Assays—Method B
A431 Inhibition Assay, (Cell Proliferation).
The rest procedure was conducted in the same manner as described above for H1975 cells.

[10] = Homo sapiens, A-431, cellular EGFR autophosphorylation
[11] = Homo sapiens, NCI-H1975, 2 h, read-out: H1975 IC50 (nM), cellular EGFR autophosphorylation, 2 h treatment, ELISA

IC50 [1] [nM] | IC50 ([2]; Homo sapiens, NCI-H1975, 72 h) [nM] | IC50 ([2]; 72 h) | IC50 [3] [nM] | IC50 ([4]; Homo sapiens, PC-9, 72 h) [nM] | IC50 ([4]; 72 h) | F ([5]; PO 10 mg/kg vs IV 1 mg/kg) [%] | clearance ([5]; mouse, plasma, IV 1 mg/kg) [mL/min/kg] | half-life ([5]; mouse, plasma, IV 1 mg/kg, read-out: T1/2 (IV) (converted)) [min] | AUC ([5]; mouse, plasma, PO 10 mg/kg) [ng·h/mL] | Cmax ([5]; mouse, plasma, PO 10 mg/kg) [ng/mL] | IC50 [6, 10] [nM] | IC50 [7, 11] [nM] | IC50 ([8]; Homo sapiens, PC-9, 2 h) [nM] | IC50 ([9]; Homo sapiens, A-431, 72 h) [nM] | SMILES | IC50 ([9]; 72 h) [nM] | IC50 ([6]; cellular EGFR autophosphorylation) [nM] | IC50 ([7]; read-out: H1975 IC50, cellular EGFR autophosphorylation, 2 h treatment, ELISA) [nM] | IC50 [8] [nM]
180 | 2.37 | 2.01 nM and 2.9 nM | 134 | 2.54 | 2.33 nM and 4.49 nM | 27.2 | 163 | 43.8 | 282 | 86 | – | – | – | – | C=CC(=O)Nc1cc(Nc2nccc(-n3nc(NC)c4ccccc43)n2)c(OC)cc1N(C)CCN(C)C [Example 21, N-(2-((2-(Dimethylamino)ethyl)(methyl)amino)-4-methoxy-5-(4-(3-(methylamino)-1H-indazol-1-yl)pyrimidin-2-ylamino)phenyl) acrylamide] | – | – | – | –
271 | 2.46 | 2.63 nM | 325 | 3.82 | 3.38 nM | – | – | – | – | – | 26.1 | 1.15 | 1.37 | – | C=CC(=O)Nc1cc(Nc2nccc(-c3c[nH]c4c(OC)nccc34)n2)c(OC)cc1N(C)CCN(C)C [Example 23, N-(2-((2-(Dimethylamino)ethyl)(methyl)amino)-4-methoxy-5-((4-(7-methoxy-1H-pyrrolo[2,3-c]pyridin-3-yl)pyrimidin-2-yl)amino)phenyl) acrylamide] | – | – | – | –
4820 | 9.92 | – | 13200 | 13.4 | – | – | – | – | – | – | 200 | 6.78 | 17.8 | 1620 | C=CC(=O)Nc1cc(Nc2nccc(-c3cnc(NC)c(C(C)=O)c3)n2)c(OC)cc1N(C)CCN(C)C [Example 27, N-(5-((4-(5-Acetyl-6-(methylamino)pyridin-3-yl)pyrimidin-2-yl)amino)-2-((2-(dimethylamino)ethyl)(methyl)amino)-4-methoxyphenyl) acrylamide] | – | – | – | –
765 | 13.9 | 11.6 nM | 814 | 8.54 | 8.39 nM | – | – | – | – | – | 161 | 7.64 | 13.7 | 1070 | C=CC(=O)Nc1cc(Nc2nccc(-n3cc(C(C)=O)c4ccccc43)n2)c(OC)cc1N(C)CCN(C)C [Example 31, N-(5-((4-(3-Acetyl-1H-indol-1-yl)pyrimidin-2-yl)amino)-2-((2-(dimethylamino)ethyl)(methyl)amino)-4-methoxyphenyl) acrylamide] | 942 | – | – | –
1420 | 9.23 | – | 1270 | 7.52 | – | – | – | – | – | – | 137 | 11.9 | 6.26 | 295 | C=CC(=O)Nc1cc(Nc2nccc(-n3nc(NCC)c4ccccc43)n2)c(OC)cc1N(C)CCN(C)C [Example 41] | – | – | – | –
1270 | 2.61 | – | 1020 | 4.4 | – | – | – | – | – | – | 76.2 | 3.83 | 10.6 | 461 | C=CC(=O)Nc1cc(Nc2nccc(-n3nc(C(C)(C)O)c4ccccc43)n2)c(OC)cc1N(C)CCN(C)C [Example 45] | – | – | – | –
1300 | 3.93 | – | 1200 | 9.09 | – | – | – | – | – | – | 106 | 4.07 | 15.5 | 2800 | C=CC(=O)Nc1cc(Nc2nccc(-n3nc(N(C)C)c4ncccc43)n2)c(OC)cc1N(C)CCN(C)C [Example 55, N-(5-(4-(3-(Dimethylamino)-1H-pyrazolo[4,3-b]pyridin-1-yl)pyrimidin-2-ylamino)-2-(N-(2-(dimethylamino)ethyl)-N-methylamino)-4-methoxyphenyl) acrylamide] | – | – | – | –
637 | 2.77 | – | 433 | 1.66 | – | – | – | – | – | – | 79.9 | 6.28 | 4.04 | 511 | C=CC(=O)Nc1cc(Nc2nccc(-n3nc(NC)c4ncccc43)n2)c(OC)cc1N(C)CCN(C)C [Example 56, N-(5-(4-(3-(Methylamino)-1H-pyrazolo[4,3-b]pyridin-1-yl)pyrimidin-2-ylamino)-2-(N-(2-(dimethylamino)ethyl)-N-methylamino)-4-methoxyphenyl) acrylamide] | – | – | – | –
207 | 5.1 | – | 290 | 3.63 | – | – | – | – | – | – | 134 | 8.5 | 14 | 267 | C=CC(=O)Nc1cc(Nc2nccc(-c3cnc(OC)c4c3ccn4C)n2)c(OC)cc1N(C)CCN(C)C [Example 57, N-(5-(4-(7-Methoxy-1N-methyl-1H-pyrrolo[2,3-c]pyridin-4-yl)pyrimidin-2-ylamino)-2-(N-(2-(dimethylamino)ethyl)-N-methylamino)-4-methoxyphenyl) acrylamide] | – | – | – | –
243 | 1.05 | – | 403 | 2.07 | – | – | – | – | – | – | 110 | 1.06 | 4.76 | 506 | C=CC(=O)Nc1cc(Nc2nccc(-c3cc(C#N)c4[nH]cc(C)c4c3)n2)c(OC)cc1N(C)CCN(C)C [Example 67, N-(5-(4-(7-Cyano-3-methyl-1H-indol-5-yl)pyrimidin-2-ylamino)-2-((2-(dimethylamino)ethyl)(methyl)amino)-4-methoxyphenyl) acrylamide] | – | – | – | –

SMILES | IC50 [1] [nM] | IC50 ([2]; Homo sapiens, NCI-H1975, 72 h) [nM] | IC50 ([2]; 72 h) | IC50 [3] [nM] | IC50 ([4]; Homo sapiens, PC-9, 72 h) [nM] | IC50 ([4]; 72 h) | F ([5]; PO 10 mg/kg vs IV 1 mg/kg) [%] | clearance ([5]; mouse, plasma, IV 1 mg/kg) [mL/min/kg] | half-life ([5]; mouse, plasma, IV 1 mg/kg, read-out: T1/2 (IV) (converted)) [min] | AUC ([5]; mouse, plasma, PO 10 mg/kg) [ng·h/mL] | Cmax ([5]; mouse, plasma, PO 10 mg/kg) [ng/mL] | IC50 [6, 10] [nM] | IC50 [7, 11] [nM] | IC50 ([8]; Homo sapiens, PC-9, 2 h) [nM] | IC50 ([9]; Homo sapiens, A-431, 72 h) [nM] | IC50 ([9]; 72 h) [nM] | IC50 ([6]; cellular EGFR autophosphorylation) [nM] | IC50 ([7]; read-out: H1975 IC50, cellular EGFR autophosphorylation, 2 h treatment, ELISA) [nM] | IC50 [8] [nM]
C=CC(=O)N[C@@H]1CN(c2nc(Nc3cn(C)nc3OC)c3ncn(C)c3n2)C[C@H]1F [PF-06747775] | – | – | 27.8 nM | – | – | 7.1 nM | – | – | – | – | – | – | – | – | – | 657 | 78.2 | 8 | 7.49
